The text below walks through data of patent US11473094B2, “Methods for improving competency of plant cells” (Monsanto Technology LLC, priority 2010, dated 2022).

The test system of this assay is Soybean cv. A3555 dry embryos. The assay is described as follows: Transformation frequency, PEG compared to other osmotic compounds. The settings on record: 1 hour contact, AB30/OriRi. Type of assay: cell-based. The text has this:
It also compares TF enhancement of treatments with various PEG species. Soybean cv. […] dry embryos were excised according to the method described in U.S. Patent Application Publication No. 2008/0280361 and contacted for an hour with various amounts of PEG-4000, PEG-6000, PEG-8000, Mannitol, Sorbitol, or Glycerol dissolved in SDW. The embryos were then rinsed 5-6× with SDW and transformed according to the methods described in U.S. Patent Application Publication No. 2009/0138985. The embryos were transformed with a 2T transformation vector having an OriRi replication of origin and contained in AB30 strain of Agrobacterium. The embryos were regenerated on spectinomycin selection medium.

SMILES strings stand for the structures.

Take `OC[C@@H](O)[C@@H](O)[C@H](O)[C@H](O)CO` [mannitol, Mannitol]: for the setting “10% in SDW”, the “# R0 Plants” value was determined as 5 and the TF is 0.50%.

Regarding `OC[C@@H](O)[C@@H](O)[C@H](O)[C@@H](O)CO` [sorbitol, Sorbitol], under “10% in SDW”, the “# R0 Plants” value is on record as 4 and the TF was determined as 0.40%. Further, for the setting “20% in SDW”, the “# R0 Plants” value is 3 and the TF amounted to 0.30%.

As for `OCC(O)CO` [glycerol, Glycerol], under “10% in SDW”, the “# R0 Plants” value came out at 4 and the TF stood at 2.30%. For the same compound, for the setting “20% in SDW”, the “# R0 Plants” value was determined as 0 and the TF turned out to be 0.00%.
